Experimental findings from patent publication US11186592B2, “Thiazolopyridine derivatives as adenosine receptor antagonists” (MERCK PATENT GMBH, priority 2017, dated 2021) are described below.

Bounds are passed on as bounds.

Common to all, as to assay type: cell-based
One experiment concerns the target T1, human A2B receptor (Homo sapiens, UniProt P29275).
T1 construct: expressed in transfected cells; host or cells: HEK293
T1 sequence (P29275 1-332): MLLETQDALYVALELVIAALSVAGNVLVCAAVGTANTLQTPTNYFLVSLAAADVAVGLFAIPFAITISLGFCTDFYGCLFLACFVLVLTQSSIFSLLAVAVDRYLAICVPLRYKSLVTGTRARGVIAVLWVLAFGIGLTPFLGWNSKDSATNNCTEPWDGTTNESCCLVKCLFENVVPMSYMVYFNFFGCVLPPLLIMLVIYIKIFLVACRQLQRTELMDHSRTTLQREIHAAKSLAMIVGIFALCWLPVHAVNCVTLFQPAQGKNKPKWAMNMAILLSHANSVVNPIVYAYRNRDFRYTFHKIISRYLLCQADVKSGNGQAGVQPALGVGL
Briefly: cAMP (HTRF) functional assay, recombinant HEK293 cells expressing human A2B receptor, agonist NECA. As to the method:
(§1) The functional activities of human A2A, A2B, A1 and A3 receptors were determined by quantification of cAMP, being the second messenger for adenosine receptors.
(§2) Cells were seeded into 384-well plates, forskolin, test compounds and agonists (CPA for A1- and IB-MECA for A3-receptor) were added. After 30 min incubation, HTRF reagents (cAMP dynamic 2, Cis Bio) were added and the cellular cAMP levels were determined using the ENVISION (Perkin Elmer) plate reader. Obtained raw data were normalized against the inhibitor control and the neural control (DMSO) and the normalized data were fitted using GeneData software.

Another experiment concerns the target T2, human A1 receptor (Homo sapiens, UniProt P30542).
T2 construct: expressed in transfected cells; host or cells: CHO
T2 sequence (P30542 1-326): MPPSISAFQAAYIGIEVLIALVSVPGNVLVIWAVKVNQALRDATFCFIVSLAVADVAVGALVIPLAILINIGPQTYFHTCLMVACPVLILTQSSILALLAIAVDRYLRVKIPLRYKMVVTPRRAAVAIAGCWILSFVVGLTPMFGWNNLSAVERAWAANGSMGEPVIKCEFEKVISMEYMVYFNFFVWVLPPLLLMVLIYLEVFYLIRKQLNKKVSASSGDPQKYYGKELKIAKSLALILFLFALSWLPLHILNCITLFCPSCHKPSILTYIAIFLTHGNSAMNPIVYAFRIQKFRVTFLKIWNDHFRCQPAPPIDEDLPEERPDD
The experiment is described as follows: cAMP (HTRF) functional assay, recombinant CHO cells expressing human A1 receptor, forskolin + agonist CPA. As to the method: as §1
For human A1 and A3 receptors, recombinant CHO cells, expressing either A1 or A3-receptor, were used. As both receptors couple to Gi proteins, the assay protocol was adapted:
as §2
On the technique in general: Time-resolved FRET reads energy transfer from a long-lived donor to a nearby acceptor.

The target of another experiment is T3, human A2A receptor (Homo sapiens, UniProt P29274).
T3 construct: expressed in transfected cells; host or cells: HEK293
T3 sequence (P29274 whole entry): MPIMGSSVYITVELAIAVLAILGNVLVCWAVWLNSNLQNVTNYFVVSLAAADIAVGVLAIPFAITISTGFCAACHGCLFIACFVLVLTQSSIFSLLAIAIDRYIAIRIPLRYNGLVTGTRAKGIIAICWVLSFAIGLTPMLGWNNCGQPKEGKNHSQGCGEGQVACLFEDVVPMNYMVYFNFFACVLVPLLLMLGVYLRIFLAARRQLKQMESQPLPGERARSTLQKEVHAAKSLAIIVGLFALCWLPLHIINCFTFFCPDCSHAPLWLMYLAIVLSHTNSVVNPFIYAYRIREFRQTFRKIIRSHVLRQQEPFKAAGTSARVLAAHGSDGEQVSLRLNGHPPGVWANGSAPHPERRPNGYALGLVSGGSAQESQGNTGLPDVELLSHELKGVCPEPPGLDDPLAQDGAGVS
The experiment is described as follows: cAMP (HTRF) functional assay, recombinant HEK293 cells expressing human A2A receptor, agonist NECA. The method, then: as §1, §2

The term IC50 denotes the point on the concentration scale where inhibition reaches its midpoint. Regarding `COc1ncc(-c2ccncc2)c2sc(NC(=O)c3ccc(C(=O)N(C)C)cc3)nc12` [compound 219, N-(4-Methoxy-7-pyridin-4-yl-thiazolo[4,5-c]pyridin-2-yl)-N′,N′-dimethyl-terephthalamide], the results for the IC50 at human A2B receptor, at human A1 receptor and on human A2A receptor were less than 0.1 µM, more than 1 µM and less than 0.01 µM, respectively.
The corresponding values for `COc1ncc(N2CCOCC2)c2sc(NC(=O)c3ccc(Cn4ccnc4)cc3)nc12` [compound 33, 4-Imidazol-1-ylmethyl-N-(4-methoxy-7-morpholin-4-yl-thiazolo[4,5-c]pyridin-2-yl)-benzamide] are less than 0.1 µM, more than 1 µM and less than 0.01 µM.
The corresponding values for `COc1ncc(-c2cnn(C)c2)c2sc(NC(=O)N3CCC4(CCCOC4)C3)nc12` (stereo not shown) [compound 80, 7-Oxa-2-aza-spiro[4.5]decane-2-carboxylic acid [4-methoxy-7-(1-methyl-1H-pyrazol-4-yl)-thiazolo[4,5-c]pyridin-2-yl]-amide] are less than 0.1 µM, more than 1 µM and less than 0.01 µM.
For `COc1ncc(C2CCOCC2)c2sc(NC(=O)N3CCC4(CCOCC4)C3)nc12` [compound 232, 8-Oxa-2-aza-spiro[4.5]decane-2-carboxylic acid [4-methoxy-7-(tetrahydro-pyran-4-yl)-thiazolo[4,5-c]pyridin-2-yl]-amide], the IC50 on human A2B receptor is less than 0.1 µM; at human A1 receptor it was more than 1 µM; on human A2A receptor it was less than 0.01 µM.
Consider `COc1ncc(N2CCOCC2)c2sc(NC(=O)c3ccc(CN4CCCC4=O)cc3)nc12` [compound 170, N-(4-Methoxy-7-morpholin-4-yl-thiazolo[4,5-c]pyridin-2-yl)-4-(2-oxo-pyrrolidin-1-ylmethyl)-benzamide], for which the half-maximal inhibitory concentration (IC50) at human A2B receptor was less than 0.1 µM; at human A2A receptor, less than 0.01 µM.
Regarding `COc1ncc(N2CCOCC2)c2sc(NC(=O)c3ccc(N4C(=O)CCC4=O)cc3)nc12` [compound 214, 4-(2,5-Dioxo-pyrrolidin-1-yl)-N-(4-methoxy-7-morpholin-4-yl-thiazolo[4,5-c]pyridin-2-yl)-benzamide], the concentration for half-maximal inhibition (IC50) on human A2B receptor is less than 0.1 µM; on human A1 receptor, more than 1 µM; on human A2A receptor, less than 0.01 µM.
The corresponding values for `COc1ncc(C2=CCOCC2)c2sc(NC(=O)N3CCC4(CCOCC4)C3)nc12` [compound 237, 8-Oxa-2-aza-spiro[4.5]decane-2-carboxylic acid [7-(3,6-dihydro-2H-pyran-4-yl)-4-methoxy-thiazolo[4,5-c]pyridin-2-yl]-amide] are less than 0.01 µM, less than 1 µM and less than 0.01 µM.
For the compound `COc1ncc(N2CCOCC2)c2sc(NC(=O)N3CCC4(CCCOC4)C3)nc12` (stereo not shown) [compound 34, 7-Oxa-2-aza-spiro[4.5]decane-2-carboxylic acid (4-methoxy-7-morpholin-4-yl-thiazolo[4,5-c]pyridin-2-yl)-amide], the IC50 is less than 0.1 µM on human A2B receptor and less than 0.01 µM at human A2A receptor.
Turning to `COc1ncc(-c2cnn(C)c2)c2sc(NC(=O)c3ccc(CN(C)C)cc3)nc12` [compound 22, 4-Dimethylaminomethyl-N-[4-methoxy-7-(1-methyl-1H-pyrazol-4-yl)-thiazolo[4,5-c]pyridin-2-yl]-benzamide], the IC50 was less than 0.1 µM on human A2B receptor, more than 1 µM on human A1 receptor and less than 0.01 µM at human A2A receptor.
For `COc1ncc(-c2cnn(C)c2)c2sc(NC(=O)N3CCC4(CCOCC4)C3)nc12` [compound 81, 8-Oxa-2-aza-spiro[4.5]decane-2-carboxylic acid [4-methoxy-7-(1-methyl-1H-pyrazol-4-yl)-thiazolo[4,5-c]pyridin-2-yl]-amide], in that order: less than 0.1 µM, more than 1 µM and less than 0.01 µM.
In the case of `COc1ncc(-c2cnn(C)c2)c2sc(NC(=O)N3CC[C@@]4(CCOC4)C3)nc12` [compound 172, (R)-2-Oxa-7-aza-spiro[4.4]nonane-7-carboxylic acid [4-methoxy-7-(1-methyl-1H-pyrazol-4-yl)-thiazolo[4,5-c]pyridin-2-yl]-amide], the IC50 on human A2B receptor was less than 0.1 µM; at human A1 receptor, more than 1 µM; on human A2A receptor, less than 0.01 µM.
For the compound `COc1ncc(-c2cnn(C)c2)c2sc(NC(=O)N3CC[C@@]4(CCCOC4)C3)nc12` [compound 176, (S)-7-Oxa-2-aza-spiro[4.5]decane-2-carboxylic acid [4-methoxy-7-(1-methyl-1H-pyrazol-4-yl)-thiazolo[4,5-c]pyridin-2-yl]-amide], the figures for the IC50 on human A2B receptor, on human A1 receptor and at human A2A receptor were less than 0.1 µM, more than 1 µM and less than 0.01 µM, respectively.
Consider `COc1nc(F)c(-c2ccccc2)c2sc(NC(=O)N3CCC4(CCOCC4)C3)nc12` [compound 229, 8-Oxa-2-aza-spiro[4.5]decane-2-carboxylic acid (6-fluoro-4-methoxy-7-phenyl-thiazolo[4,5-c]pyridin-2-yl)-amide], for which the 50% inhibitory concentration (IC50) on human A2B receptor and on human A2A receptor was less than 0.01 µM each time.
Turning to `COc1ncc(-c2ccc(F)cc2)c2sc(NC(=O)N3CCC4(CCOCC4)C3)nc12` [compound 193, 8-Oxa-2-aza-spiro[4.5]decane-2-carboxylic acid [7-(4-fluoro-phenyl)-4-methoxy-thiazolo[4,5-c]pyridin-2-yl]-amide], the IC50 is less than 0.1 µM on human A2B receptor, more than 1 µM at human A1 receptor and less than 0.01 µM on human A2A receptor.
The corresponding values for `COc1ncc(C2CCOCC2)c2sc(NC(=O)c3ccc(CN4CCCC4=O)cc3)nc12` [compound 180, N-[4-Methoxy-7-(tetrahydro-pyran-4-yl)-thiazolo[4,5-c]pyridin-2-yl]-4-(2-oxo-pyrrolidin-1-ylmethyl)-benzamide] are less than 0.1 µM, less than 1 µM and less than 0.01 µM.
For `COc1ncc(C2CCOCC2)c2sc(NC(=O)c3cnc(C)o3)nc12` [compound 147, 2-Methyl-oxazole-5-carboxylic acid [4-methoxy-7-(tetrahydro-pyran-4-yl)-thiazolo[4,5-c]pyridin-2-yl]-amide], in that order: less than 0.1 µM, more than 1 µM and less than 0.01 µM.
For the compound `COc1ncc(C2CCOCC2)c2sc(NC(=O)c3ccc(CN(C)C)cc3)nc12` [compound 27, 4-Dimethylaminomethyl-N-[4-methoxy-7-(tetrahydro-pyran-4-yl)-thiazolo[4,5-c]pyridin-2-yl]-benzamide], the results for the IC50 at human A2B receptor, on human A1 receptor and at human A2A receptor were less than 0.1 µM, more than 1 µM and less than 0.01 µM, respectively.
The corresponding values for `COc1ncc(-c2ccncc2)c2sc(NC(=O)N3CCC4(CCOCC4)C3)nc12` [compound 212, 8-Oxa-2-aza-spiro[4.5]decane-2-carboxylic acid (4-methoxy-7-pyridin-4-yl-thiazolo[4,5-c]pyridin-2-yl)-amide] are less than 0.1 µM, more than 1 µM and less than 0.01 µM.
As to `COc1ncc(-c2ccccc2)c2sc(NC(=O)N3CCC4(CCCC4N)CC3)nc12` (stereo not shown) [compound 201, 1-amino-N-{4-methoxy-7-phenyl-[1,3]thiazolo[4,5-c]pyridin-2-yl}-8-azaspiro[4.5]decane-8-carboxamide], the half-inhibitory concentration (IC50) was less than 0.1 µM on human A2B receptor and less than 0.01 µM on human A2A receptor.
`COc1ncc(-c2cnn(C)c2)c2sc(NC(=O)N3CC[C@]4(CCCOC4)C3)nc12` [compound 177, (R)-7-Oxa-2-aza-spiro[4.5]decane-2-carboxylic acid [4-methoxy-7-(1-methyl-1H-pyrazol-4-yl)-thiazolo[4,5-c]pyridin-2-yl]-amide]: the IC50 at human A2B receptor was less than 0.1 µM; at human A1 receptor, more than 1 µM; on human A2A receptor, less than 0.01 µM.
In the case of `COc1ncc(N2CCOCC2)c2sc(NC(=O)N3CC[C@@]4(CCCOC4)C3)nc12` [compound 168, (S)-7-Oxa-2-aza-spiro[4.5]decane-2-carboxylic acid (4-methoxy-7-morpholin-4-yl-thiazolo[4,5-c]pyridin-2-yl)-amide], the IC50 on human A2B receptor is less than 0.1 µM; on human A2A receptor it was less than 0.01 µM.
For `COc1ncc(-c2ccccc2)c2sc(NC(=O)c3ccc(CN4CCCC4=O)cc3)nc12` [compound 62, N-(4-Methoxy-7-phenyl-thiazolo[4,5-c]pyridin-2-yl)-4-(2-oxo-pyrrolidin-1-ylmethyl)-benzamide], the IC50 is less than 0.1 µM at human A2B receptor, less than 1 µM at human A1 receptor and less than 0.01 µM on human A2A receptor.
The corresponding values for `COc1ncc(C2CCOCC2)c2sc(NC(=O)c3cnc(C)s3)nc12` [compound 181, 2-Methyl-thiazole-5-carboxylic acid [4-methoxy-7-(tetrahydro-pyran-4-yl)-thiazolo[4,5-c]pyridin-2-yl]-amide] are less than 0.1 µM, less than 1 µM and less than 0.01 µM.
